The values below come from ChEMBL document CHEMBL3430912, “GSK Tres Cantos Anti-Kinetoplastid Screening (TCAKS) Data”.

In series [1] the test system is Trypanosoma brucei brucei. In words: GSK_TCAKS: pIC50 Trypanosoma brucei viability assay using luminiscence. Assay plates (1536-well) were prepared. T. brucei cultures were harvested and counted in a CASY cell counter. A parasite suspension was prepared at a final concentration of 5 * 10^4 cells/mL in complete HMI9 medium and 6uL was dispensed to all wells containing compounds using a Multidrop Combi dispenser. 6uL of HMI9 media with 0.4% DMSO were dispensed to control columns. Plates were incubated for 24 h at 37C, 5% CO2 then tempered for 10 min at room temperature. ATP content was quantified by adding 4 uL of CellTiter-Glo Reagent (Promega) according to the manufacturer's instructions. Luminescence was measured using a ViewLux. The format is functional, organism-based. The note with it: Lister 427, CASY. A general note: In ATP-based viability assays light output follows the ATP content of the culture.

A short description of series [2]: GSK_TCAKS: pIC50 HepG2 human cell line viability assay using luminiscence. […] Seeding density was checked to ensure that new mono-layers were not more than 50% confluent at the time of harvesting. Cell suspension was added to 500 mL of the same medium at a final density of 1.2 * 10^5 cells/mL. This cell suspension was dispensed (25 uL, 3000 cells per well) into 384-well clear-bottom plates using a Multidrop Combi dispenser. Prior to addition of the cell suspension, the screening compounds (250 nL) were pre-dispensed into the plates with an Echo liquid handler. Plates were incubated for 48 h at 37C, 5% CO2. After incubation, plates equilibrated at room temperature for 30 min before proceeding to develop the luminescent signal. The signal developer, CellTiter-Glo Reagent, was allowed to equilibrate at room temperature for 30 min and added to the plates (25uL per well) using a Multidrop Combi dispenser. Plates were left for 10 min at room temperature for stabilization and then read using a ViewLux. The format is toxicity, cell-based.

In series [3] the test system is Leishmania donovani. Put plainly: GSK_TCAKS: pIC50 Leishmania donovani Imaging: Amastigotes/Macrophages. Assay plates (384-well) were prepared by adding 250nL of compound to each well. For single shot assay, the final compound concentration was 5 uM. […] Automated image analysis was performed with a script developed on Acapella High Content Imaging and Analysis Software (PerkinElmer). Output: Average number of amastigotes per macrophage cell were reported for each well. It counts as functional, organism-based, Homo sapiens. The note with it: THP-1.

Series [4] concerns Leishmania donovani. In words: GSK_TCAKS: pIC50 Leishmania donovani viability assay using fluorescence intensity. Assay plates (1536-well) were prepared by adding 30nL per well of compound. For single shot assay, the final compound concentration was 5uM. […] Briefly, eGFP LdBOB axenic amastigotes were harvested, fixed and counted in a CASY cell counter (Roche-Applied Science). A final concentration of 1.5 * 10^5 cells per well were prepared in amastigote media containing 500 U/mL penicillin/streptomycin (Invitrogen) and 6uL was dispensed to each experimental well using a Multidrop Combi dispenser (Thermo Scientific). 6uL of assay media was dispensed to control columns used as reference for 100% compound response. Following incubation for 72 h at 37C, 5% CO2, 2 uL of resazurin was added to each well at a final concentration of 0.5 mM in phosphate buffered saline (PBS) with IGEPAL (Sigma-Aldrich), 0.05% (v/v). It counts as functional, organism-based.

Series [5] relates to Trypanosoma cruzi. In words: GSK_TCAKS: pIC50 Trypanosoma cruzi viability assay using beta-GAL activity. This assay was run at single shot at 5uM compound concentration per well. The biological reagents consisted of NIH-3T3 host cells and trypomastigotes parasitic cells; both cell types were set to a 3.3 * 10^5 cells/mL dilution in assay DMEM by means of a CASY cell counter device using a 60um capillary. 6 uL of the mixture were dispensed per well (about 1 * 10^3 host-cells and 1 * 10^3 parasites) with a Multidrop Combi dispenser. […] In all wells, the percentage of DMSO never exceeded 0.5%. Plates incubated for four days at 37C, 5% CO2. The substrate used for the assay fluorescence intensity (FLINT) readout was resorufin-beta-D-galactopiranoside (Sigma-Aldrich) at 5uM per well. It was diluted in PBS supplemented with the soft detergent Igepal (Fluka). The format is functional, organism-based, Mus musculus. The note with it: Tulahuen, NIH3T3.

The subject of series [6] is Trypanosoma brucei brucei. Put plainly: GSK_TCAKS: pIC50 Trypanosoma brucei viability assay using fluorescence intensity. Assay plates (1536-well) were prepared by dispensing 25nL of compound solution per well using an Echo acoustic dispenser (Labcyte). The format is functional, organism-based. The note with it: Lister 427, 2 h.
Series [7] concerns Trypanosoma cruzi. Put plainly: (§1) GSK_TCAKS: pIC50 H2C9 Imaging: H9c2 Host Cardiomyocytes. […] Cells were then washed once with PBS before infection. T. cruzi trypomastigotes, collected at days 5 to 8 after infection from LLC-MK2 parasite infected cultures, were allowed to swim out for 4h at 37C from a centrifuged pellet (2,500 rpm/10 min/room temperature). Trypomastigotes were then collected and counted in a CASY Cell Counter. Trypomastigotes, in supplemented DMEM, were added to H9c2 cultures in a multiplicity of infection of 1 and incubated for 18 h. Cells were washed once with PBS before incubation of the infected H9c2 monolayer with trypsin (Life-Technologies) to detach cells from the flask. Cells were counted in a CASY Cell Counter using a 150 um capillary and their density set at 5 * 10^4 cells per mL in supplemented assay DMEM. Infected H9c2 were dispensed into 384-well poly-lysine coated assay plates at 50uL per well using a Multidrop Combi dispenser. After seeding them, the plates were incubated at 37C, 5% CO2 for 72h. Cultures were then fixed and stained by addition of 50 uL of a solution containing 8% formaldehyde and 4 uM DRAQ5 DNA dye (BioStatus, UK) per well. […] Five images were collected per well for reliable statistical analysis. Automated image analysis was performed with a script developed on Acapella High Content Imaging and Analysis Software (PerkinElmer). Output: Number of H9c2 Host Cardiomyocytes nuclei to determine drug-related cytotoxicity. The note with it: H9c2, 4 h. The format is functional, organism-based, Rattus norvegicus.

Series [8] has as its system Trypanosoma cruzi. Described as §1, with “Trypanosoma cruzi” for “H2C9”, “Infected Cells.” for “H9c2 Host Cardiomyocytes.”, “percentage” for “Number”, “infected cells per well as a second infection marker.” for “H9c2 Host Cardiomyocytes nuclei to determine drug-related cytotoxicity.”. It counts as functional, organism-based, Rattus norvegicus. The note with it: H9c2, 4 h.

In series [9] the test system is Leishmania donovani. In words: GSK_TCAKS: pIC50 Leishmania donovani Imaging: THP-1 Host Macrophages. Assay plates (384-well) were prepared by adding 250nL of compound to each well. For single shot assay, the final compound concentration was 5 uM. […] Automated image analysis was performed with a script developed on Acapella High Content Imaging and Analysis Software (PerkinElmer). Output: THP-1 cell count were reported for each well. The format is functional, organism-based, Homo sapiens.

For series [10], the system named is Trypanosoma cruzi. The description is as §1, with “Trypanosoma cruzi” for “H2C9”, “Amastigotes/Cell.” for “H9c2 Host Cardiomyocytes.”, “number” for “Number”, “amastigotes per cell as infection level measurement.” for “H9c2 Host Cardiomyocytes nuclei to determine drug-related cytotoxicity.”. It counts as functional, organism-based, Rattus norvegicus. The note with it: H9c2, 4 h.

In series [11] the target is Sterol 14-alpha demethylase (Trypanosoma cruzi (strain CL Brener), UniProt Q7Z1V1). Put plainly: GSK_TCAKS: pIC50 CYP51 from Trypanosoma cruzi. It counts as functional.
Sequence of Sterol 14-alpha demethylase (Q7Z1V1 whole entry): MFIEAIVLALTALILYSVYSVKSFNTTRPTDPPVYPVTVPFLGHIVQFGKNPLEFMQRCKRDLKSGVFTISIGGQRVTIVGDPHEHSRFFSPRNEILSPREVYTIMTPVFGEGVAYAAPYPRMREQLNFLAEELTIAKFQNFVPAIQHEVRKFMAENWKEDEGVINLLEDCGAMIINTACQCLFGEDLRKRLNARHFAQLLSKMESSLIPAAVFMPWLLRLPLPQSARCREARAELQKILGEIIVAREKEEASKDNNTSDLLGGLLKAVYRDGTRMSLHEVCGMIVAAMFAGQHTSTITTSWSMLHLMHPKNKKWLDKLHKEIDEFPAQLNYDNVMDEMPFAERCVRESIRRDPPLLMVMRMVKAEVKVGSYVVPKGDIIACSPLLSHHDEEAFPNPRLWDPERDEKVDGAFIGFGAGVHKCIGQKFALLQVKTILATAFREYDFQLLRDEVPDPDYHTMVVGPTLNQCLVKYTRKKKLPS
Series [12] relates to Leishmania donovani. Put plainly: GSK_TCAKS: pIC50 Leishmania donovani Imaging: Infected Macrophages. Assay plates (384-well) were prepared by adding 250nL of compound to each well. For single shot assay, the final compound concentration was 5 uM. […] Automated image analysis was performed with a script developed on Acapella High Content Imaging and Analysis Software (PerkinElmer). Output: Percent of infected macrophage cells were reported for each well. It counts as functional, organism-based, Homo sapiens. The note with it: THP-1.

In the case of `CCOc1cc(NCCCN2CCN(C)CC2)c2ncccc2c1`, the IC50 was 20 µM in series [1]; 0.794 µM with Leishmania donovani [3]; 39.8 µM in the series with Leishmania donovani [4]; 1.78 µM with Trypanosoma cruzi [5]; 12.6 µM in [6]; 31.6 µM with Trypanosoma cruzi [7]. For the same compound, the IC50 was 1.26 µM with Trypanosoma cruzi [8]; 6.31 µM with Leishmania donovani [9]; 1 µM with Trypanosoma cruzi [10]; greater than 100 µM in series [11]; 1.26 µM with Leishmania donovani [12]. The compound also had an IC50 at 48 h in series [2] of 31.6 µM.

On to `Cc1cc(-c2cccc3ccccc23)nc2nc(N)nc(N)c12`, for which the IC50 in series [1] was 20 µM; in the series on Leishmania donovani [3] it was 1 µM; in the series on Leishmania donovani [4], 2 µM; with Trypanosoma cruzi [5] it was 39.8 µM; in series [6], 31.6 µM; in the series on Trypanosoma cruzi [7], greater than 50.1 µM. Also, the IC50 in the series with Trypanosoma cruzi [8] is greater than 50.1 µM; in the series on Leishmania donovani [9], 50.1 µM; in the series on Trypanosoma cruzi [10], 31.6 µM; in series [11], greater than 100 µM; in the series with Leishmania donovani [12], 5.01 µM. In series [2], inhibition was half-maximal at 50.1 µM (IC50 at 48 h).

As to `N#Cc1ccc(Br)cc1[N+](=O)[O-]`, the IC50 is 0.2 µM in series [1]; 12.6 µM in the series with Leishmania donovani [3]; 7.94 µM with Leishmania donovani [4]; 0.251 µM with Trypanosoma cruzi [5]; 0.158 µM in [6]; 39.8 µM with Trypanosoma cruzi [7]. Further, the IC50 in the series with Trypanosoma cruzi [8] is 0.794 µM; in the series on Leishmania donovani [9] it was 25.1 µM; in the series on Trypanosoma cruzi [10], 0.0631 µM; in series [11], 50.1 µM; in the series on Leishmania donovani [12], 20 µM. Also, the IC50 at 48 h in [2] is 20 µM.

Consider `COc1ccc([N+](=O)[O-])cc1NC(=O)c1cc(Cl)ccc1O`, for which the half-inhibitory concentration (IC50) was 25.1 µM in [1]; 1.58 µM in the series with Leishmania donovani [3]; 7.94 µM with Leishmania donovani [4]; 31.6 µM in the series with Trypanosoma cruzi [5]; 25.1 µM in series [6]; greater than 50.1 µM in the series with Trypanosoma cruzi [7]. For the same compound, the IC50 in the series on Trypanosoma cruzi [8] is 15.8 µM; in the series with Leishmania donovani [9], 10 µM; in the series with Trypanosoma cruzi [10], 7.94 µM; in [11], greater than 100 µM; in the series on Leishmania donovani [12], 2 µM. Also, the concentration for half-maximal inhibition (IC50) at 48 h in [2] is 10 µM.

As for `O=C(Nc1ccccc1C(=O)Nc1ccccn1)c1ccco1`, the IC50 was 0.501 µM in [1]; greater than 50.1 µM with Leishmania donovani [3]; greater than 50.1 µM in the series on Leishmania donovani [4]; greater than 50.1 µM with Trypanosoma cruzi [5]; 0.251 µM in series [6]; greater than 50.1 µM in the series on Trypanosoma cruzi [7]. Moreover, the 50% inhibitory concentration (IC50) was greater than 50.1 µM in the series on Trypanosoma cruzi [8]; greater than 50.1 µM in the series on Leishmania donovani [9]; greater than 50.1 µM in the series on Trypanosoma cruzi [10]; greater than 100 µM in series [11]; greater than 50.1 µM with Leishmania donovani [12]. Also, the IC50 at 48 h in [2] was greater than 100 µM.

As for `COc1cccc(Nc2cc(C)nc(-c3ccccn3)n2)c1`, the IC50 is greater than 39.8 µM in series [1]; 1.26 µM in the series with Leishmania donovani [3]; 3.98 µM with Leishmania donovani [4]; 3.16 µM in the series on Trypanosoma cruzi [5]; greater than 39.8 µM in series [6]; 5.01 µM in the series on Trypanosoma cruzi [7]. For the same compound, the IC50 in the series with Trypanosoma cruzi [8] is 12.6 µM; in the series on Leishmania donovani [9], greater than 50.1 µM; with Trypanosoma cruzi [10] it was 7.94 µM; in series [11], greater than 100 µM; in the series with Leishmania donovani [12], 2 µM. Also, the IC50 at 48 h in [2] was 50.1 µM.

One may read the IC50 as the concentration that gives 50% inhibition.
